pEC50, pIC50: −log10 of the molar value. Where two headings read alike, the source gives them in different places.
Tests used:
CMV = assay: Viral qPCR assay, CMV; format: cell-based; settings: infected cells, viral genome copies by qPCR normalized to PPIA, read-out: CMV Cell EC50
Outline: (§1)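 EC50 reflects inhibition of viral DNA copies relative to PPIA after roughly 72 hrs of infection in MRC5, Vero or MeWo cells. Copy numbers were derived by TaqMan qPCR from a plasmid standard curve.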

[1] = target: Human cytomegalovirus DNA polymerase (Human cytomegalovirus (strain AD169) (HHV-5) (Human herpesvirus 5), UniProt P08546); assay: CMV polymerase assay (AlphaLISA); format: biochemical; settings: HCMV polymerase 0.2 nM, 30 min pre-incubation, 60 minute at 37° C.
Procedure: (§2) Human cytomegalovirus and varicella zoster virus DNA polymerases were expressed via baculovirus vector in SF21 cells and purified. Heterodimeric nucleic acid substrate used in the herpesvirus polymerase reactions were generated by annealing a 59-mer template to a 17-mer digoxigenin-labeled primer. Polymerase (HCMV final concentration of 0.2 nM; VZV final concentration of 0.4 nM) was combined with an inhibitor compound or DMSO in assay buffer (10 mM HEPES, pH 7.5, 25 mM KCl, 25 mM NaCl, 5 mM MgCl2, 5% glycerol, 0.67 mg/ml bovine serum albumin, and 1 mM tris(2-carboxyethyl)phosphine)), and this mixture was pre-incubated for 30 minutes at room temperature in 384-well microtiter plates. The polymerization reaction was initiated by the addition of template/primer substrate (final concentration: 1.6 nM), and dNTPs (final concentration: 24 nM dCTP, 24 nMdGTP, 16 nM dATP, 16 nM dTTP, and 0.8 nM biotin-dUTP). After a 60 minute incubation period at 37° C., the reactions were terminated using quench buffer (25 mM HEPES pH 7.5, 100 mM NaCl, 0.25% Tween-20, 12 mM EDTA, and 1 mg/ml bovine serum albumin). Incorporation of biotinylated UTP was detected with 2.5-5 μg/mL anti-DIG AlphaLISA acceptor beads and 5-10 μg/mL streptavidin AlphaLISA donor beads (PerkinElmer). Compound effects were normalized to the window defined by the controls (DMSO only and pre-quenched wells), and were fit using a 4-parameter algorithm to report an IC50.

HSV2 = assay: Viral qPCR assay, HSV2; format: cell-based; settings: infected cells, viral genome copies by qPCR normalized to PPIA, read-out: HSV2 Cell EC50
Outline: as §1

HSV1 = assay: Viral qPCR assay, HSV1; format: cell-based; settings: infected cells, viral genome copies by qPCR normalized to PPIA, read-out: HSV1 Cell EC50
Outline: as §1

[2] = target: varicella zoster virus DNA polymerase (Varicella-zoster virus (strain Dumas) (HHV-3) (Human herpesvirus 3), UniProt P09252); assay: VZV polymerase assay (AlphaLISA); format: biochemical; settings: VZV polymerase 0.4 nM, 30 min pre-incubation, 60 minute at 37° C.
Procedure: as §2

Cc1ncc(-c2cc3nc(C)n(Cc4ccc(Cl)cc4)c(=O)c3cc2O[C@H]2CCN3C(=O)OC[C@@H]3C2)cn1 [Example 90]
pEC50 (CMV; Human betaherpesvirus 5, 72 h): 6.62
pIC50 [1]: 7.74
pEC50 (HSV2; Human alphaherpesvirus 2, 72 h): 6.94
pEC50 (HSV1; Human alphaherpesvirus 1, 72 h): 6.67
pIC50 [2]: 7.80

O=C1OC[C@@H]2C[C@@H](Oc3cc(CO)c4ncn(Cc5ccc(Cl)cc5)c(=O)c4c3)CCN12 [Example 46]
pEC50 (CMV; Human betaherpesvirus 5, 72 h): 6.76
pIC50 [1]: 7.62
pEC50 (HSV2; Human alphaherpesvirus 2, 72 h): 6.48
pEC50 (HSV1; Human alphaherpesvirus 1, 72 h): 6.37
pIC50 [2]: 7.70

COc1nc2ccn(Cc3ccc(Cl)cc3)c(=O)c2cc1O[C@H]1CCN2C(=O)OC[C@@H]2C1 [Example 39]
pEC50 (CMV; Human betaherpesvirus 5, 72 h): 6.28
pIC50 [1]: 7.55
pEC50 (HSV2; Human alphaherpesvirus 2, 72 h): 6.02
pEC50 (HSV1; Human alphaherpesvirus 1, 72 h): 5.87
pIC50 [2]: 7.39

COc1nc2ccc(O[C@H]3CCN4C(=O)OC[C@@H]4C3)cc2c(=O)n1Cc1ccc(Cl)cc1 [Example 58]
pEC50 (CMV; Human betaherpesvirus 5, 72 h): 6.76
pIC50 [1]: 7.64
pEC50 (HSV2; Human alphaherpesvirus 2, 72 h): 5.94
pEC50 (HSV1; Human alphaherpesvirus 1, 72 h): 6.00
pIC50 [2]: 7.33

O=C1OC[C@@H]2C[C@@H](Oc3cc4c(=O)n(Cc5ccc(Cl)cc5)cnc4nc3-c3cnn(C(F)F)c3)CCN12 [Example 36]
pEC50 (CMV; Human betaherpesvirus 5, 72 h): 7.43
pIC50 [1]: 8.72
pEC50 (HSV2; Human alphaherpesvirus 2, 72 h): 7.55
pEC50 (HSV1; Human alphaherpesvirus 1, 72 h): 7.31
pIC50 [2]: 8.82

O=C1OC[C@@H]2C[C@@H](Oc3cnc4c(C5CC5)cn(Cc5ccc(Cl)cc5)c(=O)c4c3)CCN12 [Example 1]
pEC50 (CMV; ~72 hrs): 5.98
pIC50 [1]: 7.16
pEC50 (HSV2; ~72 hrs): 5.81
pEC50 (HSV1; ~72 hrs): 5.57
pIC50 [2]: 7.12

Cc1nc2cc(-c3cnn(C)c3)c(O[C@H]3CCN4C(=O)OC[C@@H]4C3)cc2c(=O)n1Cc1ccc(Cl)cc1 [Example 52]
pEC50 (CMV; Human betaherpesvirus 5, 72 h): 7.66
pIC50 [1]: 9.52
pEC50 (HSV2; Human alphaherpesvirus 2, 72 h): 7.72
pEC50 (HSV1; Human alphaherpesvirus 1, 72 h): 7.41
pIC50 [2]: 9.36

Cc1nc2cc(-c3cccnc3)c(O[C@H]3CCN4C(=O)OC[C@@H]4C3)cc2c(=O)n1Cc1ccc(Cl)cc1 [Example 54]
pEC50 (CMV; Human betaherpesvirus 5, 72 h): 7.09
pIC50 [1]: 7.64
pEC50 (HSV2; Human alphaherpesvirus 2, 72 h): 6.76
pEC50 (HSV1; Human alphaherpesvirus 1, 72 h): 6.62
pIC50 [2]: 7.55

Cc1nc2cc(-c3ccn(C(F)F)n3)c(O[C@H]3CCN4C(=O)OC[C@@H]4C3)cc2c(=O)n1Cc1ccc(Cl)cc1 [Example 13]
pEC50 (CMV; ~72 hrs): 7.31
pIC50 [1]: 9.00
pEC50 (HSV2; ~72 hrs): 7.42
pEC50 (HSV1; ~72 hrs): 7.43
pIC50 [2]: 8.46

O=C1OC[C@@H]2C[C@@H](Oc3cc(-c4cnco4)c4ncn(Cc5ccc(Cl)cc5)c(=O)c4c3)CCN12 [Example 42]
pEC50 (CMV; Human betaherpesvirus 5, 72 h): 6.74
pIC50 [1]: 7.68
pEC50 (HSV2; Human alphaherpesvirus 2, 72 h): 7.04
pEC50 (HSV1; Human alphaherpesvirus 1, 72 h): 6.63
pIC50 [2]: 7.89

Cc1nc2cc(-c3nc4n(n3)CCN(C)C4)c(O[C@H]3CCN4C(=O)OC[C@@H]4C3)cc2c(=O)n1Cc1ccc(Cl)cc1 [Example 81]
pEC50 (CMV; Human betaherpesvirus 5, 72 h): 6.58
pIC50 [1]: 7.82
pEC50 (HSV2; Human alphaherpesvirus 2, 72 h): 6.51
pEC50 (HSV1; Human alphaherpesvirus 1, 72 h): 6.44
pIC50 [2]: 7.57

Cc1nc2cc(-c3cn[nH]c3)c(O[C@H]3CCN4C(=O)OC[C@@H]4C3)cc2c(=O)n1Cc1ccc(Cl)cc1 [Example 53]
pEC50 (CMV; Human betaherpesvirus 5, 72 h): 7.07
pIC50 [1]: 9.12
pEC50 (HSV2; Human alphaherpesvirus 2, 72 h): 7.46
pEC50 (HSV1; Human alphaherpesvirus 1, 72 h): 7.05
pIC50 [2]: 9.25

Cc1nc2cc(-c3cn(C(F)F)cn3)c(O[C@H]3CCN4C(=O)OC[C@@H]4C3)cc2c(=O)n1Cc1ccc(Cl)cc1 [Example 82]
pEC50 (CMV; Human betaherpesvirus 5, 72 h): 7.28
pIC50 [1]: 8.26
pEC50 (HSV2; Human alphaherpesvirus 2, 72 h): 7.35
pEC50 (HSV1; Human alphaherpesvirus 1, 72 h): 7.20
pIC50 [2]: 8.15

O=C1OC[C@@H]2C[C@@H](Oc3cc4c(=O)n(Cc5ccc(Cl)cc5)ccc4nc3-c3cnn(C(F)F)c3)CCN12 [Example 31]
pEC50 (CMV; Human betaherpesvirus 5, 72 h): 7.00
pIC50 [1]: 8.52
pEC50 (HSV2; Human alphaherpesvirus 2, 72 h): 7.34
pEC50 (HSV1; Human alphaherpesvirus 1, 72 h): 6.86
pIC50 [2]: 8.68

Cc1nc2cc(-c3cc4n(n3)CCNC4)c(O[C@H]3CCN4C(=O)OC[C@@H]4C3)cc2c(=O)n1Cc1ccc(Cl)cc1 [Example 84]
pEC50 (CMV; Human betaherpesvirus 5, 72 h): 6.75
pIC50 [1]: 9.36
pEC50 (HSV2; Human alphaherpesvirus 2, 72 h): 6.99
pEC50 (HSV1; Human alphaherpesvirus 1, 72 h): 6.95
pIC50 [2]: 9.36

O=C1OC[C@@H]2C[C@@H](Oc3cc4c(=O)n(Cc5ccc(Cl)cc5)ccc4nc3-c3cnco3)CCN12 [Example 38]
pEC50 (CMV; Human betaherpesvirus 5, 72 h): 7.62
pIC50 [1]: 8.96
pEC50 (HSV2; Human alphaherpesvirus 2, 72 h): 7.55
pEC50 (HSV1; Human alphaherpesvirus 1, 72 h): 7.32
pIC50 [2]: 9.48

O=C1OC[C@@H]2C[C@@H](Oc3ccc4ncn(Cc5ccc(Cl)cc5)c(=O)c4c3)CCN12 [Example 24]
pEC50 (CMV; Human betaherpesvirus 5, 72 h): 6.67
pIC50 [1]: 7.57
pEC50 (HSV2; Human alphaherpesvirus 2, 72 h): 6.47
pEC50 (HSV1; Human alphaherpesvirus 1, 72 h): 6.30
pIC50 [2]: 7.46

O=C1OC[C@@H]2C[C@@H](Oc3ccc4nc(C5CC5)n(Cc5ccc(Cl)cc5)c(=O)c4c3)CCN12 [Example 49]
pEC50 (CMV; Human betaherpesvirus 5, 72 h): 6.43
pIC50 [1]: 7.54
pEC50 (HSV2; Human alphaherpesvirus 2, 72 h): 5.96
pEC50 (HSV1; Human alphaherpesvirus 1, 72 h): 5.95
pIC50 [2]: 7.37

Cc1nc2cc(-c3cn4c(n3)CNCC4)c(O[C@H]3CCN4C(=O)OC[C@@H]4C3)cc2c(=O)n1Cc1ccc(C#N)cc1 [Example 73]
pEC50 (CMV; Human betaherpesvirus 5, 72 h): 5.38
pIC50 [1]: 9.00
pEC50 (HSV2; Human alphaherpesvirus 2, 72 h): 5.52
pEC50 (HSV1; Human alphaherpesvirus 1, 72 h): 5.41
pIC50 [2]: 8.28

Cc1nc2cc(C3CC(C)(O)C3)c(O[C@H]3CCN4C(=O)OC[C@@H]4C3)cc2c(=O)n1Cc1ccc(Cl)cc1 (single isomer, unassigned) [Example 77]
pEC50 (CMV; Human betaherpesvirus 5, 72 h): 6.66
pIC50 [1]: 8.51
pEC50 (HSV2; Human alphaherpesvirus 2, 72 h): 6.78
pEC50 (HSV1; Human alphaherpesvirus 1, 72 h): 6.80
pIC50 [2]: 8.47

CC(=O)N1CCC(Oc2ccc3ccn(Cc4ccc(Cl)cc4)c(=O)c3c2)CC1 [Example 22]
pEC50 (CMV; Human betaherpesvirus 5, 72 h): 5.37
pIC50 [1]: 6.41
pEC50 (HSV2; Human alphaherpesvirus 2, 72 h): 5.37
pEC50 (HSV1; Human alphaherpesvirus 1, 72 h): 5.25
pIC50 [2]: 7.15

Cc1nc2cc(-c3ccn(C(F)F)n3)c(O[C@H]3CCN4C(=O)OC[C@@H]4C3)cc2c(=O)n1Cc1ccc(C#N)cc1 [Example 11]
pEC50 (CMV; ~72 hrs): 7.27
pIC50 [1]: 9.26
pEC50 (HSV2; ~72 hrs): 7.46
pEC50 (HSV1; ~72 hrs): 7.29
pIC50 [2]: 8.60

Cc1nc2ccc(O[C@H]3CCN4C(=O)OC[C@@H]4C3)cc2c(=O)n1Cc1ccc(Cl)cc1 [Example 40]
pEC50 (CMV; Human betaherpesvirus 5, 72 h): 6.80
pIC50 [1]: 7.96
pEC50 (HSV2; Human alphaherpesvirus 2, 72 h): 6.52
pEC50 (HSV1; Human alphaherpesvirus 1, 72 h): 6.41
pIC50 [2]: 7.77

Cc1nc2cc(-c3cc(C(F)(F)F)[nH]n3)c(O[C@H]3CCN4C(=O)OC[C@@H]4C3)cc2c(=O)n1Cc1ccc(C#N)cc1 [Example 76]
pEC50 (CMV; Human betaherpesvirus 5, 72 h): 6.58
pIC50 [1]: 7.96
pEC50 (HSV2; Human alphaherpesvirus 2, 72 h): 6.51
pEC50 (HSV1; Human alphaherpesvirus 1, 72 h): 6.39
pIC50 [2]: 7.96

Cc1nc2cc(C3CCC3O)c(O[C@H]3CCN4C(=O)OC[C@@H]4C3)cc2c(=O)n1Cc1ccc(C#N)cc1 (single isomer, unassigned) [Example 85]
pEC50 (CMV; Human betaherpesvirus 5, 72 h): 6.47
pIC50 [1]: 8.00
pEC50 (HSV2; Human alphaherpesvirus 2, 72 h): 6.13
pEC50 (HSV1; Human alphaherpesvirus 1, 72 h): 6.17
pIC50 [2]: 7.96

Cc1nc2ncc(O[C@H]3CCN4C(=O)OC[C@@H]4C3)cc2c(=O)n1Cc1ccc(Cl)cc1 [Example 69]
pEC50 (CMV; Human betaherpesvirus 5, 72 h): 6.51
pIC50 [1]: 7.46
pEC50 (HSV2; Human alphaherpesvirus 2, 72 h): 5.88
pEC50 (HSV1; Human alphaherpesvirus 1, 72 h): 6.06
pIC50 [2]: 7.54
